Measurements reported in ChEMBL document CHEMBL3044763, “Inhibitory Activities of Rhodanine Derivatives on Plant Growth” (Biosci Biotechnol Biochem, 1996).

Legend:
[1] = Toxicity in Mus musculus ddY (mouse) assessed as mortality at 225 mg/kg, ip after 7 days; assay type: organism-based; set-up: dose 225 mg/kg, route intraperitoneal; settings: in vivo
[2] = Toxicity in Mus musculus ddY (mouse) assessed as mortality at 325 mg/kg, ip after 4 days; assay type: organism-based; set-up: dose 325 mg/kg, route intraperitoneal; settings: in vivo
[3] = tested on: Brassica rapa subsp. oleifera; test: Growth inhibition of Brassica rapa subsp. oleifera assessed as total chlorophyll level at 3 x 10^-4 M after 7 days; assay type: functional; set-up: scale not given: the % may be the effect or the level left
[4] = tested on: Brassica rapa subsp. oleifera; test: Growth inhibition of Brassica rapa subsp. oleifera assessed as root growth at 5 x 10^-5 M after 7 days; assay type: functional
[5] = tested on: Brassica rapa subsp. oleifera; test: Growth inhibition of Brassica rapa subsp. oleifera assessed as total chlorophyll level at 1 x 10^-4 M after 7 days; assay type: functional; set-up: scale not given: the % may be the effect or the level left
[6] = Toxicity in Mus musculus ddY (mouse) assessed as mortality at 250 mg/kg, ip after 6 days; assay type: organism-based; set-up: dose 250 mg/kg, route intraperitoneal; settings: in vivo
[7] = Toxicity in Mus musculus ddY (mouse) assessed as mortality at 200 mg/kg, ip after 2 days; assay type: organism-based; set-up: dose 200 mg/kg, route intraperitoneal; settings: in vivo
[8] = Toxicity in Mus musculus ddY (mouse) assessed as mortality at 225 mg/kg, ip after 1 day; assay type: organism-based; set-up: dose 225 mg/kg, route intraperitoneal; settings: in vivo
[9] = tested on: Brassica rapa subsp. oleifera; test: Growth inhibition of Brassica rapa subsp. oleifera assessed as chlorophyll a level at 5 x 10^-5 M after 7 days; assay type: functional; set-up: scale not given: the % may be the effect or the level left
[10] = tested on: Brassica rapa subsp. oleifera; test: Growth inhibition of Brassica rapa subsp. oleifera assessed as chlorophyll b level at 3 x 10^-5 M after 7 days; assay type: functional; set-up: scale not given: the % may be the effect or the level left
[11] = Toxicity in Mus musculus ddY (mouse) assessed as mortality at 225 mg/kg, ip after 6 days; assay type: organism-based; set-up: dose 225 mg/kg, route intraperitoneal; settings: in vivo
[12] = Toxicity in Mus musculus ddY (mouse) assessed as mortality at 225 mg/kg, ip after 5 days; assay type: organism-based; set-up: dose 225 mg/kg, route intraperitoneal; settings: in vivo
[13] = Toxicity in Mus musculus ddY (mouse) assessed as mortality at 225 mg/kg, ip after 4 days; assay type: organism-based; set-up: dose 225 mg/kg, route intraperitoneal; settings: in vivo
[14] = Toxicity in Mus musculus ddY (mouse) assessed as mortality at 325 mg/kg, ip after 3 days; assay type: organism-based; set-up: dose 325 mg/kg, route intraperitoneal; settings: in vivo
[15] = tested on: Brassica rapa subsp. oleifera; test: Growth inhibition of Brassica rapa subsp. oleifera assessed as chlorophyll b level at 3 x 10^-4 M after 7 days; assay type: functional; set-up: scale not given: the % may be the effect or the level left
[16] = Toxicity in Mus musculus ddY (mouse) assessed as mortality at 325 mg/kg, ip after 5 days; assay type: organism-based; set-up: dose 325 mg/kg, route intraperitoneal; settings: in vivo
[17] = Toxicity in Mus musculus ddY (mouse) assessed as mortality at 300 mg/kg, ip after 3 days; assay type: organism-based; set-up: dose 300 mg/kg, route intraperitoneal; settings: in vivo
[18] = tested on: Brassica rapa subsp. oleifera; test: Growth inhibition of Brassica rapa subsp. oleifera assessed as total chlorophyll level at 5 x 10^-5 M after 7 days; assay type: functional; set-up: scale not given: the % may be the effect or the level left
[19] = Toxicity in Mus musculus ddY (mouse) assessed as mortality at 300 mg/kg, ip after 5 days; assay type: organism-based; set-up: dose 300 mg/kg, route intraperitoneal; settings: in vivo
[20] = tested on: Brassica rapa subsp. oleifera; test: Growth inhibition of Brassica rapa subsp. oleifera assessed as chlorophyll b level at 5 x 10^-5 M after 7 days; assay type: functional; set-up: scale not given: the % may be the effect or the level left
[21] = Toxicity in Mus musculus ddY (mouse) assessed as mortality at 325 mg/kg, ip after 2 days; assay type: organism-based; set-up: dose 325 mg/kg, route intraperitoneal; settings: in vivo
[22] = Toxicity in Mus musculus ddY (mouse) assessed as mortality at 325 mg/kg, ip after 6 days; assay type: organism-based; set-up: dose 325 mg/kg, route intraperitoneal; settings: in vivo
[23] = tested on: Brassica rapa subsp. oleifera; test: Growth inhibition of Brassica rapa subsp. oleifera assessed as root growth at 3 x 10^-5 M after 7 days; assay type: functional
[24] = Toxicity in Mus musculus ddY (mouse) assessed as mortality at 200 mg/kg, ip after 1 day; assay type: organism-based; set-up: dose 200 mg/kg, route intraperitoneal; settings: in vivo
[25] = Toxicity in Mus musculus ddY (mouse) assessed as mortality at 275 mg/kg, ip after 3 days; assay type: organism-based; set-up: dose 275 mg/kg, route intraperitoneal; settings: in vivo
[26] = Toxicity in Mus musculus ddY (mouse) assessed as mortality at 275 mg/kg, ip after 6 days; assay type: organism-based; set-up: dose 275 mg/kg, route intraperitoneal; settings: in vivo
[27] = Toxicity in Mus musculus ddY (mouse) assessed as mortality at 200 mg/kg, ip after 5 days; assay type: organism-based; set-up: dose 200 mg/kg, route intraperitoneal; settings: in vivo
[28] = Toxicity in Mus musculus ddY (mouse) assessed as mortality at 200 mg/kg, ip after 4 days; assay type: organism-based; set-up: dose 200 mg/kg, route intraperitoneal; settings: in vivo
[29] = Toxicity in Mus musculus ddY (mouse) assessed as mortality at 250 mg/kg, ip after 2 days; assay type: organism-based; set-up: dose 250 mg/kg, route intraperitoneal; settings: in vivo
[30] = tested on: Brassica rapa subsp. oleifera; test: Growth inhibition of Brassica rapa subsp. oleifera assessed as root growth at 3 x 10^-4 M after 7 days; assay type: functional
[31] = Toxicity in Mus musculus ddY (mouse) assessed as mortality at 300 mg/kg, ip after 4 days; assay type: organism-based; set-up: dose 300 mg/kg, route intraperitoneal; settings: in vivo
[32] = tested on: Brassica rapa subsp. oleifera; test: Growth inhibition of Brassica rapa subsp. oleifera assessed as chlorophyll b level at 1 x 10^-4 M after 7 days; assay type: functional; set-up: scale not given: the % may be the effect or the level left
[33] = Toxicity in Mus musculus ddY (mouse) assessed as mortality at 275 mg/kg, ip after 2 days; assay type: organism-based; set-up: dose 275 mg/kg, route intraperitoneal; settings: in vivo
[34] = Toxicity in Mus musculus ddY (mouse) assessed as mortality at 300 mg/kg, ip after 2 days; assay type: organism-based; set-up: dose 300 mg/kg, route intraperitoneal; settings: in vivo
[35] = Toxicity in Mus musculus ddY (mouse) assessed as mortality at 300 mg/kg, ip after 1 day; assay type: organism-based; set-up: dose 300 mg/kg, route intraperitoneal; settings: in vivo
[36] = tested on: Brassica rapa subsp. oleifera; test: Growth inhibition of Brassica rapa subsp. oleifera assessed as chlorophyll a level at 1 x 10^-4 M after 7 days; assay type: functional; set-up: scale not given: the % may be the effect or the level left
[37] = Toxicity in Mus musculus ddY (mouse) assessed as mortality at 275 mg/kg, ip after 1 day; assay type: organism-based; set-up: dose 275 mg/kg, route intraperitoneal; settings: in vivo
[38] = Toxicity in Mus musculus ddY (mouse) assessed as mortality at 225 mg/kg, ip after 3 days; assay type: organism-based; set-up: dose 225 mg/kg, route intraperitoneal; settings: in vivo
[39] = tested on: Brassica rapa subsp. oleifera; test: Growth inhibition of Brassica rapa subsp. oleifera assessed as chlorophyll a level at 3 x 10^-4 M after 7 days; assay type: functional; set-up: scale not given: the % may be the effect or the level left
[40] = Toxicity in Mus musculus ddY (mouse) assessed as mortality at 250 mg/kg, ip after 7 days; assay type: organism-based; set-up: dose 250 mg/kg, route intraperitoneal; settings: in vivo
[41] = Toxicity in Mus musculus ddY (mouse) assessed as mortality at 325 mg/kg, ip after 7 days; assay type: organism-based; set-up: dose 325 mg/kg, route intraperitoneal; settings: in vivo
[42] = Toxicity in ip dosed Mus musculus ddY (mouse) assessed as mortality after 1 to 7 days; assay type: organism-based; settings: in vivo
[43] = Toxicity in Mus musculus ddY (mouse) assessed as mortality at 250 mg/kg, ip after 1 day; assay type: organism-based; set-up: dose 250 mg/kg, route intraperitoneal; settings: in vivo
[44] = Toxicity in Mus musculus ddY (mouse) assessed as mortality at 250 mg/kg, ip after 4 days; assay type: organism-based; set-up: dose 250 mg/kg, route intraperitoneal; settings: in vivo
[45] = tested on: Brassica rapa subsp. oleifera; test: Growth inhibition of Brassica rapa subsp. oleifera assessed as total chlorophyll level at 3 x 10^-5 M after 7 days; assay type: functional; set-up: scale not given: the % may be the effect or the level left
[46] = Toxicity in Mus musculus ddY (mouse) assessed as mortality at 250 mg/kg, ip after 3 days; assay type: organism-based; set-up: dose 250 mg/kg, route intraperitoneal; settings: in vivo
[47] = Toxicity in Mus musculus ddY (mouse) assessed as mortality at 200 mg/kg, ip after 6 days; assay type: organism-based; set-up: dose 200 mg/kg, route intraperitoneal; settings: in vivo
[48] = Toxicity in Mus musculus ddY (mouse) assessed as mortality at 200 mg/kg, ip after 7 days; assay type: organism-based; set-up: dose 200 mg/kg, route intraperitoneal; settings: in vivo
[49] = Toxicity in Mus musculus ddY (mouse) assessed as mortality at 300 mg/kg, ip after 7 days; assay type: organism-based; set-up: dose 300 mg/kg, route intraperitoneal; settings: in vivo
[50] = tested on: Brassica rapa subsp. oleifera; test: Growth inhibition of Brassica rapa subsp. oleifera assessed as root growth at 1 x 10^-4 M after 7 days; assay type: functional
[51] = tested on: Brassica rapa subsp. oleifera; test: Growth inhibition of Brassica rapa subsp. oleifera assessed as chlorophyll a level at 3 x 10^-5 M after 7 days; assay type: functional; set-up: scale not given: the % may be the effect or the level left
[52] = Toxicity in Mus musculus ddY (mouse) assessed as mortality at 275 mg/kg, ip after 4 days; assay type: organism-based; set-up: dose 275 mg/kg, route intraperitoneal; settings: in vivo
[53] = Toxicity in Mus musculus ddY (mouse) assessed as mortality at 250 mg/kg, ip after 5 days; assay type: organism-based; set-up: dose 250 mg/kg, route intraperitoneal; settings: in vivo
[54] = Toxicity in Mus musculus ddY (mouse) assessed as mortality at 325 mg/kg, ip after 1 day; assay type: organism-based; set-up: dose 325 mg/kg, route intraperitoneal; settings: in vivo
[55] = Toxicity in Mus musculus ddY (mouse) assessed as mortality at 200 mg/kg, ip after 3 days; assay type: organism-based; set-up: dose 200 mg/kg, route intraperitoneal; settings: in vivo
[56] = Toxicity in Mus musculus ddY (mouse) assessed as mortality at 300 mg/kg, ip after 6 days; assay type: organism-based; set-up: dose 300 mg/kg, route intraperitoneal; settings: in vivo
[57] = Toxicity in Mus musculus ddY (mouse) assessed as mortality at 225 mg/kg, ip after 2 days; assay type: organism-based; set-up: dose 225 mg/kg, route intraperitoneal; settings: in vivo
[58] = Toxicity in Mus musculus ddY (mouse) assessed as mortality at 275 mg/kg, ip after 5 days; assay type: organism-based; set-up: dose 275 mg/kg, route intraperitoneal; settings: in vivo
[59] = Toxicity in Mus musculus ddY (mouse) assessed as mortality at 275 mg/kg, ip after 7 days; assay type: organism-based; set-up: dose 275 mg/kg, route intraperitoneal; settings: in vivo

CN1C(=O)CSC1=S [3-METHYL-RHODANINE]
mortality at 168 h [1]: 20%
mortality at 96 h [2]: 100%
Activity [3]: 14.29%
Root length [4]: 53.9 mm
Activity [5]: 20.44%
mortality at 144 h [6]: 40%
mortality at 48 h [7]: 0%
mortality at 24 h [8]: 20%
Activity [9]: 14.2%
Activity [10]: 4.67%
mortality at 144 h [11]: 20%
mortality at 120 h [12]: 20%
mortality at 96 h [13]: 20%
mortality at 72 h [14]: 100%
Activity [15]: 3.53%
mortality at 120 h [16]: 100%
mortality at 72 h [17]: 80%
Activity [18]: 18.62%
mortality at 120 h [19]: 80%
Activity [20]: 4.44%
mortality at 48 h [21]: 60%
mortality at 144 h [22]: 100%
Root length [23]: 56.2 mm
mortality at 24 h [24]: 0%
mortality at 72 h [25]: 80%
mortality at 144 h [26]: 80%
mortality at 120 h [27]: 0%
mortality at 96 h [28]: 0%
mortality at 48 h [29]: 20%
Activity [30]: 37.5 mm
mortality at 96 h [31]: 80%
Activity [32]: 4.85%
mortality at 48 h [33]: 80%
mortality at 48 h [34]: 80%
mortality at 24 h [35]: 40%
Activity [36]: 15.61%
mortality at 24 h [37]: 20%
mortality at 72 h [38]: 20%
Activity [39]: 10.77%
mortality at 168 h [40]: 40%
mortality at 168 h [41]: 100%
LD50 [42]: 255 mg/kg
mortality at 24 h [43]: 20%
mortality at 96 h [44]: 40%
Activity [45]: 19.75%
mortality at 72 h [46]: 40%
mortality at 144 h [47]: 0%
mortality at 168 h [48]: 0%
mortality at 168 h [49]: 80%
Activity [50]: 52.7 mm
Activity [51]: 15.09%
mortality at 96 h [52]: 80%
mortality at 120 h [53]: 40%
mortality at 24 h [54]: 60%
mortality at 72 h [55]: 0%
mortality at 144 h [56]: 80%
mortality at 48 h [57]: 20%
mortality at 120 h [58]: 80%
mortality at 168 h [59]: 80%
